Measured values reported in patent publication US12227500B2, “Substituted pyrrolo[2,3-b]pyridines for suppressing toxic endoplasmic reticulum stress” (THE TRUSTEES OF COLUMBIA UNIVERSITY IN THE CITY OF NEW YORK, priority 2018, dated 2025).
Where two headings read alike, the source gives them in different places.

Columns and labels:
[1] = system: human ES motor neurons carrying the ALS-causing SOD1^A4V mutation; assay: cells; format: cell-based; conditions: for EC50 / Emax: CPA 33 μM; for EC50 / viability at 1 µM / Emax: 72 h; for viability at 1 µM: CPA (33 μM) + compound (1 μM), read-out: Motor Neuron Survival, % untreated; for Emax: read-out: Emax (MN survival % untreated)
Experimental: Next, survival assays were performed with all the analogs at once to generate a low-variability dataset. All compounds were evaluated at concentrations ranging from 0.1-3.0 μM (five-point dilution) in three technical replicates and two biological replicates.

[2] = biological target: T1, MLK1/MAP3K9 (Homo sapiens, UniProt P80192); assay: Radiolabeled ATP kinase assay (Reaction Biology Corp.), MLK1; format: biochemical; conditions: [Cmpd] 0.1 μM, 10 μM ATP
T1 construct: purchased Reaction Biology Corp
T1 sequence (P80192 whole entry): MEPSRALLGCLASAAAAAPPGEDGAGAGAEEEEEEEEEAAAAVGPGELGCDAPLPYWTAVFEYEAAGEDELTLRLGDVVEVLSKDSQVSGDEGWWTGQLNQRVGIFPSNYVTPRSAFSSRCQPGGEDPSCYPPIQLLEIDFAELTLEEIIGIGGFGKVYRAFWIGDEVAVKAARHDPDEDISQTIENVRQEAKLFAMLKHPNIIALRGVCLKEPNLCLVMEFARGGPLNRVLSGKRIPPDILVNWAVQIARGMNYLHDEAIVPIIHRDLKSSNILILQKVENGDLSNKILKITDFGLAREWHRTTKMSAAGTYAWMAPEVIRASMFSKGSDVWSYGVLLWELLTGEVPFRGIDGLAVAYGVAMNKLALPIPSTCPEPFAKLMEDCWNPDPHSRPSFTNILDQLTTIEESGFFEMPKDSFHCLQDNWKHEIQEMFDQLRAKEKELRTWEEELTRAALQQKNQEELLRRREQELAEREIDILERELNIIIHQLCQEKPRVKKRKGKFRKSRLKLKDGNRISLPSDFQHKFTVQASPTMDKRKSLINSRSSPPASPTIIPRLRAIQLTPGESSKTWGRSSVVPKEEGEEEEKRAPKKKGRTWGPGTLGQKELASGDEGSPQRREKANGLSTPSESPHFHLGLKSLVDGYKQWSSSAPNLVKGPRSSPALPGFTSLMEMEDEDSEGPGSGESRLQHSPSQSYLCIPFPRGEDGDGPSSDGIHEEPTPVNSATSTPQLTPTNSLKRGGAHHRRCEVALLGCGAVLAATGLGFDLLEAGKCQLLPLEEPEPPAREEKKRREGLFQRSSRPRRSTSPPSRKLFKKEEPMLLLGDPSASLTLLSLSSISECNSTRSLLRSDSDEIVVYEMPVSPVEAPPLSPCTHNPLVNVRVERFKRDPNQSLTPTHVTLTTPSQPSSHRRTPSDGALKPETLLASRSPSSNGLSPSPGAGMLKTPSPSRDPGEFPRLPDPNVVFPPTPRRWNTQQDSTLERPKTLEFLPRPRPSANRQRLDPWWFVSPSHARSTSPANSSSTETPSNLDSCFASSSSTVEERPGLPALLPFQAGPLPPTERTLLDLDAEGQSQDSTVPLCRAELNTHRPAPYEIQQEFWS
Experimental: (§1) Meanwhile, the same analogs were analyzed in a radiolabeled ATP assay (10 μM ATP; Reaction Biology Corp.) to compare the extent to which they could inhibit the activity of HGK, MLK1, or MLK3 in a cell-free environment (Table S3 and S4).

[3] = biological target: T2, MLK3/MAP3K11 (Homo sapiens, UniProt Q16584); assay: Radiolabeled ATP kinase assay (Reaction Biology Corp.), MLK3; format: biochemical; conditions: [Cmpd] 0.1 μM; 10 μM ATP
T2 construct: purchased Reaction Biology Corp
T2 sequence (Q16584 whole entry): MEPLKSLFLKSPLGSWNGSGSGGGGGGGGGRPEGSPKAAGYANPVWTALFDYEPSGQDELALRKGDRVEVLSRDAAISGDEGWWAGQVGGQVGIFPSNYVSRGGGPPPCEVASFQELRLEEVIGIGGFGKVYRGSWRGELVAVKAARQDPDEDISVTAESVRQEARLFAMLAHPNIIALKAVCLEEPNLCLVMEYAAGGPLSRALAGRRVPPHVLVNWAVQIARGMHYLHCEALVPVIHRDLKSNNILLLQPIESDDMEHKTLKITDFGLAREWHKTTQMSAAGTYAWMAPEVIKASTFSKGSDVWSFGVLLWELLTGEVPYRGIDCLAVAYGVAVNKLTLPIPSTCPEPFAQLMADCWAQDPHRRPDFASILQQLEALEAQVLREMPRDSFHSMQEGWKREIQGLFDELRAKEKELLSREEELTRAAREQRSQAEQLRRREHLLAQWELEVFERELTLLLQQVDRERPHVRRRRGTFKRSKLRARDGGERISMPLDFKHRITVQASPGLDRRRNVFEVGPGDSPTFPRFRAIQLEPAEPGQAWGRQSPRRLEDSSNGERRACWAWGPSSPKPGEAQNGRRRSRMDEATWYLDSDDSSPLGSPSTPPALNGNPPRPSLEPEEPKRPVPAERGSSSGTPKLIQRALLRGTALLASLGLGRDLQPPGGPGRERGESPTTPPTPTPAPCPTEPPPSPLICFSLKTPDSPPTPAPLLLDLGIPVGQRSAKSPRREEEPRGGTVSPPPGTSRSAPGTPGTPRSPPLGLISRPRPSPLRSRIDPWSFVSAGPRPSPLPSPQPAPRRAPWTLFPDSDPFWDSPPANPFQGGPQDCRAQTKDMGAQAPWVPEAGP
Experimental: as §1

[4] = biological target: HGK/MAP4K4 (Homo sapiens, UniProt O95819); assay: Radiolabeled ATP kinase assay (Reaction Biology Corp.), HGK; format: biochemical; set-up: purchased Reaction Biology Corp; conditions: 10 μM ATP, read-out: % Enzyme Activity (relative to DMSO controls), HGK/MAP4K4, Data 1; for remaining activity at 0.025 µM: [Cmpd] 0.025 μM; for remaining activity at 0.1 µM: [Cmpd] 0.1 μM
HGK/MAP4K4, sequence (O95819 whole entry): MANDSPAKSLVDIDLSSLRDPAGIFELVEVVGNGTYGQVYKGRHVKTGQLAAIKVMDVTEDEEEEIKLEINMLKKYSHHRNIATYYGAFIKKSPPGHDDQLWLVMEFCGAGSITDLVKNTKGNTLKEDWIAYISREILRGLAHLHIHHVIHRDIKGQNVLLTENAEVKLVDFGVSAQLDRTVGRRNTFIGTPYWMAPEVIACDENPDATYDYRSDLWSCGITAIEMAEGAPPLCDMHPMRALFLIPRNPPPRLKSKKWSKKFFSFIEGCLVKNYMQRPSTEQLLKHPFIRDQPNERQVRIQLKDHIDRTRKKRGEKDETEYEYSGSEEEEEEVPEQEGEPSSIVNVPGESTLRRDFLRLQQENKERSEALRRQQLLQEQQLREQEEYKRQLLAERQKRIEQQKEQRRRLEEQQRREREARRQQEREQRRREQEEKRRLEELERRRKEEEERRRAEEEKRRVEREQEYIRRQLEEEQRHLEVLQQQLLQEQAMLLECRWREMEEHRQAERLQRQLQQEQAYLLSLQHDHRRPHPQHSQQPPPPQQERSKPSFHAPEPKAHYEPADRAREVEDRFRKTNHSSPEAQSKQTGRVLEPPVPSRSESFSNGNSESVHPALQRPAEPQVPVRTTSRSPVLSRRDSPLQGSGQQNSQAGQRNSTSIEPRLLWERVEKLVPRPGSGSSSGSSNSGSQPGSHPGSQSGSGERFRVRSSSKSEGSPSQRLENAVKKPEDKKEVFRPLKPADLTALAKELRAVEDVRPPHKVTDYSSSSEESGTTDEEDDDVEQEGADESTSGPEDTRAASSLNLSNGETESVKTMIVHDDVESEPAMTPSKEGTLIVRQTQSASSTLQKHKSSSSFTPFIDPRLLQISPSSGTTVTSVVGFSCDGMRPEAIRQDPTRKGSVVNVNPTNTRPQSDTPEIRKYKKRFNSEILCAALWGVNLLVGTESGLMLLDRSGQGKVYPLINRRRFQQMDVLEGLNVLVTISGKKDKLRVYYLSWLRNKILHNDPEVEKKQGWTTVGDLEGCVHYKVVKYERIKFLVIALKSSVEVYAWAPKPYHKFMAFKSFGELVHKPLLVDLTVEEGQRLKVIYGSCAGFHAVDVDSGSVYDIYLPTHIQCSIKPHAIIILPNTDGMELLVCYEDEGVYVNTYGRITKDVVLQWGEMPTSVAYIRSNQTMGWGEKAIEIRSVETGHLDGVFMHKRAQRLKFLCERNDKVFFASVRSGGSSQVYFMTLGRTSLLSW
Experimental: as §1

[5] = read-out: % Enzyme Activity Remaining (relative to DMSO controls), MLK1/MAP3K9, Data 1
[6] = read-out: % Enzyme Activity Remaining (relative to DMSO controls), MLK1/MAP3K9, Data 2
[7] = Homo sapiens, Neuron, read-out: EC50

| remaining activity at 0.1 µM [2, 5] [%] | remaining activity at 0.1 µM [2, 6] [%] | % Enzyme Activity Remaining (relative to DMSO controls), MLK3/MAP3K11, Data 1 [3] [%] | % Enzyme Activity Remaining (relative to DMSO controls), MLK3/MAP3K11, Data 2 [3] [%] | remaining activity at 0.025 µM [4] [%] | remaining activity at 0.1 µM [4] [%] | Compound | EC50 [1] | viability at 1 µM ([1]; Homo sapiens, Neuron) [%] | Emax ([1]; Homo sapiens, Neuron) [%] | EC50 [1, 7] [nM] | rescue of MNs in the CPA survival assay ([1]; FIG. 9) |
| --- | --- | --- | --- | --- | --- | --- | --- | --- | --- | --- | --- |
| 74.2 | 75.1 | 63.66 | 64.82 | 86.1 | 58.8 | CN1CCN(Cc2ccc(-c3cnc4[nH]cc(-c5cc6ccccc6[nH]5)c4c3)cc2)CC1 [Compound 7a, 3-(1H-Indol-2-yl)-5-(4-((4-methylpiperazin-1-yl)methyl)phenyl)-1H-pyrrolo[2,3-b]pyridine] | – | – | – | – | – |
| 96.4 | 92.6 | 95.75 | 93.75 | 103 | 86.6 | CN1CCN(Cc2ccc(-c3cnc4[nH]cc(-c5cc(C(F)(F)F)cc(C(F)(F)F)c5)c4c3)cc2)CC1 [Compound 7aj, 3-(3,5-Bis(trifluoromethyl)phenyl)-5-(4-((4-methylpiperazin-1-yl)methyl)phenyl)-1H-pyrrolo[2,3-b]pyridine] | – | – | – | – | – |
| 54.2 | 52.8 | 70.05 | 68.91 | 35.6 | 6.76 | COc1cc(-c2c[nH]c3ncc(-c4ccc(CN5CCN(C)CC5)cc4)cc23)cc(OC)c1OC [Compound 7ap, 5-(4-((4-Methylpiperazin-1-yl)methyl)phenyl)-3-(3,4,5-trimethoxyphenyl)-1H-pyrrolo[2,3-b]pyridine] | – | – | – | – | – |
| 54.5 | 53.6 | 51.92 | 49.61 | 57.3 | 20 | COc1ccc(-c2c[nH]c3ncc(-c4ccc(CN5CCN(C)CC5)cc4)cc23)cc1C [Compound 7aq, 3-(4-Methoxy-3-methylphenyl)-5-(4-((4-methylpiperazin-1-yl)methyl)phenyl)-1H-pyrrolo[2,3-b]pyridine] | – | – | – | – | – |
| 55.9 | 58.5 | 45.87 | 42.66 | – | – | CN1CCN(Cc2ccc(-c3cnc4[nH]cc(-c5cc6ccccc6s5)c4c3)cc2)CC1 [Compound 7g, 3-(Benzo[b]thiophen-2-yl)-5-(4-((4-methylpiperazin-1-yl)methyl)phenyl)-1H-pyrrolo[2,3-b]pyridine] | – | – | – | – | – |
| 77.7 | 77.5 | 46.91 | 44.55 | 63.6 | 20.6 | CN1CCN(Cc2ccc(-c3cnc4[nH]cc(-c5cccc(C(=O)O)c5)c4c3)cc2)CC1 [Compound 7j, 3-(5-(4-((4-Methylpiperazin-1-yl)methyl)phenyl)-1H-pyrrolo[2,3-b]pyridin-3-yl)benzoic acid] | – | – | – | – | – |
| 56.2 | 58.6 | 38.87 | 39.87 | 4.88 | 1.23 | CN1CCN(Cc2ccc(-c3cnc4[nH]cc(-c5cccc(O)c5)c4c3)cc2)CC1 [Compound 7r, 3-(5-(4-((4-Methylpiperazin-1-yl)methyl)phenyl)-1H-pyrrolo[2,3-b]pyridin-3-yl)phenol] | – | – | – | – | – |
| 95 | 95.5 | 93.68 | 88.60 | 102 | 85.5 | Cc1ccc(S(=O)(=O)n2cc(-c3ccc4[nH]ccc4c3)c3cc(-c4ccc(C=O)cc4)cnc32)cc1 [Compound 11, 4-(3-(1H-Indol-5-yl)-1-tosyl-1H-pyrrolo[2,3-b]pyridin-5-yl)benzaldehyde] | – | – | – | – | – |
| 56.2 | 46.5 | 52.18 | 46.74 | 72.8 | 51.5 | c1cc2cc(-c3c[nH]c4ncc(-c5ccc(CN6CC7CCC(C6)O7)cc5)cc34)ccc2[nH]1 [Compound 12a, 3-(4-(3-(1H-Indol-5-yl)-1H-pyrrolo[2,3-b]pyridin-5-yl)benzyl)-8-oxa-3-azabicyclo[3.2.1]octane] | – | – | – | – | – |
| – | – | – | – | – | – | Fc1cccc(-c2c[nH]c3ncc(-c4ccc(CN5CCC(N6CCCCC6)CC5)cc4)cc23)c1 [Compound 12g, 5-(4-([1,4′-Bipiperidin]-1′-ylmethyl)phenyl)-3-(3-fluorophenyl)-1H-pyrrolo[2,3-b]pyridine] | – | – | 89.3 | 50 | – |
| – | – | – | – | – | – | CC(C)(C)N1CCN(Cc2ccc(-c3cnc4[nH]cc(-c5cccc(F)c5)c4c3)cc2)CC1 [Compound 12j, 5-(4-((4-(tert-Butyl)piperazin-1-yl)methyl)phenyl)-3-(3-fluorophenyl)-1H-pyrrolo[2,3-b]pyridine] | – | – | 98.5 | 50 | – |
| – | – | – | – | – | – | NG-25 [reference compound] | – | – | – | – | unable to rescue MNs |

| Compound | remaining activity at 0.1 µM [2, 5] [%] | remaining activity at 0.1 µM [2, 6] [%] | % Enzyme Activity Remaining (relative to DMSO controls), MLK3/MAP3K11, Data 1 [3] [%] | % Enzyme Activity Remaining (relative to DMSO controls), MLK3/MAP3K11, Data 2 [3] [%] | remaining activity at 0.025 µM [4] [%] | remaining activity at 0.1 µM [4] [%] | EC50 [1] | viability at 1 µM ([1]; Homo sapiens, Neuron) [%] | Emax ([1]; Homo sapiens, Neuron) [%] | EC50 [1, 7] [nM] | rescue of MNs in the CPA survival assay ([1]; FIG. 9) |
| --- | --- | --- | --- | --- | --- | --- | --- | --- | --- | --- | --- |
| CN1CCN(Cc2ccc(-c3cnc4[nH]ccc4c3)cc2)CC1 [Compound 4, 5-(4-((4-Methylpiperazin-1-yl)methyl)phenyl)-1H-pyrrolo[2,3-b]pyridine] | 95.9 | 93.5 | 91.95 | 94.97 | 101 | 88.3 | Ambiguous | 10.3 | 13.7 | – | – |
| CN1CCN(Cc2ccc(-c3cnc4[nH]cc(-c5cccc(C(F)(F)F)c5)c4c3)cc2)CC1 [Compound 7ab, 5-(4-((4-Methylpiperazin-1-yl)methyl)phenyl)-3-(3-(trifluoromethyl)phenyl)-1H-pyrrolo[2,3-b]pyridine] | 83.7 | 82.9 | 68.47 | 70.51 | 26.6 | 4.65 | – | 60.7 | 60.7 | 1280 | – |
| CN1CCN(Cc2ccc(-c3cnc4[nH]cc(-c5ccccc5)c4c3)cc2)CC1 [Compound 7ac, 5-(4-((4-Methylpiperazin-1-yl)methyl)phenyl)-3-phenyl-1H-pyrrolo[2,3-b]pyridine] | 60.8 | 57.7 | 42.00 | 43.30 | 31.9 | 6.69 | – | 75.9 | 110 | 774 | – |
| CC(C)Oc1ccc(-c2c[nH]c3ncc(-c4ccc(CN5CCN(C)CC5)cc4)cc23)cc1 [Compound 7q, 3-(4-Isopropoxyphenyl)-5-(4-((4-methylpiperazin-1-yl)methyl)phenyl)-1H-pyrrolo[2,3-b]pyridine] | 94.1 | 95.4 | 91.91 | 89.69 | – | – | – | 20.6 | 21.5 | 740 | – |
| CN1C2CCC1CN(Cc1ccc(-c3cnc4[nH]cc(-c5ccc6[nH]ccc6c5)c4c3)cc1)C2 [Compound 12b, 3-(1H-Indol-5-yl)-5-(4-((8-methyl-3,8-diazabicyclo[3.2.1]octan-3-yl)methyl)phenyl)-1H-pyrrolo[2,3-b]pyridine] | – | – | – | – | 69 | 34.5 | – | 25.2 | 72.6 | 1960 | – |
| CN1CC2CCC(C1)N2Cc1ccc(-c2cnc3[nH]cc(-c4ccc5[nH]ccc5c4)c3c2)cc1 [Compound 12c, 3-(1H-Indol-5-yl)-5-(4-((3-methyl-3,8-diazabicyclo[3.2.1]octan-8-yl)methyl)phenyl)-1H-pyrrolo[2,3-b]pyridine] | – | – | – | – | 92.7 | 84.2 | – | 43.7 | 43.7 | 694 | – |
| CN1C2CCC1CN(Cc1ccc(-c3cnc4[nH]cc(-c5cccc6[nH]ncc56)c4c3)cc1)C2 [Compound 12d, 4-(5-(4-((8-Methyl-3,8-diazabicyclo[3.2.1]octan-3-yl)methyl)phenyl)-1H-pyrrolo[2,3-b]pyridin-3-yl)-1H-indazole] | – | – | – | – | 3.17 | -0.29 | – | 109 | 143 | 301 | – |
